According to PubChem BioAssay AID1963839 (Molecular Pharmacology Branch, DTP, NCI, 2024):
Several values for one entry are separate records, joined by “and”; a condition that tells them apart may be missing. Identical values can stand only once.

Test system: 817829-284-R-J1-PDC complex spheroid viability
Assay: Anticancer human tumor 817829-284-R-J1-PDC patient-derived colon adenocarcinoma cell line growth inhibition [POLQ]
Details: for viability, T/C: stronger effect = lower value
Experimental: Multicellular complex tumor spheroid response to Polymerase (POL) inhibitors (novobiocin, ART-558, RP6685) in combination with a variety of drugs and investigational agents in selected tumor cell lines
The POL inhibitors (novobiocin, ART-558, and RP6685) were evaluated both individually and in combination with standard of care and investigational anticancer small molecules within a complex spheroid model of solid tumors. . Complex spheroids include a stromal component modeled by human endothelial cells (HUVEC) and fibroblasts modeled by human mesenchymal stem cells (MSCs). The concentration ranges selected for each drug and investigational agent were based upon clinically achievable concentrations if the clinical Cmax of the agent was known.
Compounds. The drugs and investigational agents: novobiocin (NSC847541), ART-558 (NSC835418), RP-6685 (NSC848927), peposertib (NSC802822), ceralasertib (NSC780249), elimusertib (NSC800525), camonsertib (NSC841442), AZD-1390 (NSC803789), olaparib (NSC753686), talazoparib (NSC767125), rucaparib (NSC756644), sotorasib (NSC818433), MRTX-1133 (NSC836407), SN-38 (NSC673596), topotecan (NSC609699), epotoside (NSC141540), doxorubicin (NSC123127), gemcitabine (NSC613327), 5-fluorouracil (NSC19893), paclitaxel (NSC125973), vemurafenib (NSC761431), MSA-2 (NSC828583), SN-011 (NSC837082), adavosertib (NSC754352), prexasertib (NSC758257), carboplatin (NSC241240) and oxaliplatin (NSC266046), were obtained from the National Cancer Institute (NCI) Developmental Therapeutics Program Chemical Repository (21). The FDA-approved anticancer drug set is available from the Developmental Therapeutics Program at https://dtp.cancer.gov/organization/dscb/obtaining/. […] The stock solutions were prepared in dimethyl sulfoxide (DMSO, Sigma-Aldrich, St. Louis, MO, cat. D2650), except for the platinum compounds which were prepared in saline (Quality Biological, Gaithersburg, MD, cat. 114-055-101), at 800-fold the tested concentration and stored at -70 degrees C prior to their use. All drugs and investigational agents were tested over a range starting from a high concentration at or near the clinical Cmax and decreasing in half-log increments. If the clinical Cmax for an agent had not been determined, the highest concentration tested was 10 microM, except for SN-38, which was tested at a high concentration of 1 microM.
Cell Culture. All cells were maintained in an incubator at 37 degrees C and 5% CO2 with 95% humidity. The PDC lines were cultured according to standard operating procedures established by the NCI PDMR (https://pdmr.cancer.gov). Table 3 of the manuscript, lists the cell lines along with the number of the three cell types plated to form the mct-spheroids and media for tumor cell growth. After thawing, all PDC lines, except 997537-175-T-J1-PDC and 415267-285-R-J2-PDC, were cultured in Matrigel-coated flasks prepared with a working solution of 1X Ham's F-12 nutrient mix, without supplementation (Thermo Fisher Scientific, cat. 11765054), 100 U/mL penicillin-streptomycin (Thermo Fisher Scientific, cat. 15140122), and 2.5% Matrigel (Corning Inc., Corning, NY, cat. 354248) for the first three passages. The two PDC lines 997537-175-T-J1-PDC and 415267-285-R-J2-PDC were cultured on uncoated flasks. The 857933-349-R-J2-PDC line was cultured in 6C/Colon 1B media containing advanced DMEM/F-12 (Thermo Fisher Scientific, cat. 12634028), 10 mM HEPES (Thermo Fisher Scientific, cat. 15630080), 1X GlutaMAX supplement (Thermo Fisher Scientific, cat. 35050061), 0.1 mg/mL primocin (InvivoGen, San Diego, CA, cat. ant-pm-2), 10% defined fetal bovine serum, heat inactivated (HyClone Laboratories Inc., Logan, UT, cat. SH30070.03HI), 50% L-WRN conditioned media (ATCC, cat. CRL-3276), 1.25 mM N-Acetyl-L-cysteine (Sigma-Aldrich, cat. A9165), 10 mM nicotinamide (Sigma-Aldrich, cat. N0636), 1X B-27 supplement (Thermo Fisher Scientific, cat. 17504044), 1X N-2 supplement (Thermo Fisher Scientific, cat. […]

[1] = compound alone, run of 11/27/2023
[2] = compound alone, run of 12/05/2023
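Also: spheroids exposed to compounds for 7 days.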
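For viability, T/C in this document: 100% = DMSO vehicle-treated spheroids.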

Row | Structure (SMILES) | viability, T/C (compound 0.0316 µM) | viability, T/C (compound 0.1 µM) | viability, T/C (compound 0.316 µM) | viability, T/C (compound 1 µM) | viability, T/C (compound 3.16 µM) | viability, T/C (compound 10 µM) | IC50 (curve of compound) | IC50 [1] [nM] | viability, T/C (compound 0.00316 µM) | viability, T/C (compound 0.01 µM) | IC50 [2] [nM] | viability, T/C (compound 0.000316 µM) | viability, T/C (compound 0.001 µM)
1 | CNCc1ccc(-c2[nH]c3cc(F)cc4c3c2CCNC4=O)cc1 | 86.8% and 88% and 73.1% | 81.9% and 77.7% and 81.3% | 63.4% and 89.9% and 53.7% | 68.6% and 81.8% and 58.3% | 51.3% and 64.6% and 58.9% | 47.6% (2×) and 40.2% | 6530 nM and 6300 nM and 9450 nM |  |  |  |  |  | 
2 | COC1C(OC(N)=O)C(O)C(Oc2ccc3c(O)c(NC(=O)c4ccc(O)c(CC=C(C)C)c4)c(=O)oc3c2C)OC1(C)C (stereo not drawn) |  |  |  |  |  |  |  | > 10000 |  |  |  |  | 
3 | COc1cc(C2c3cc4c(cc3C(OC3OC5COC(C)OC5C(O)C3O)C3COC(=O)C23)OCO4)cc(OC)c1O (stereo not drawn) | 60.4% and 73.7% and 73.4% | 32.3% and 48.6% and 33.4% | 15.3% and 18.4% and 14.9% | 19.1% and 18.8% and 20.4% | 16.7% and 11.9% and 11.2% | 6.7% and 6.64% and 6.97% | 47.7 nM and 91.2 nM and 61.7 nM |  |  |  |  |  | 
4 | COc1cc2cc(C(=O)CCC(=O)O)sc2cc1OC | 114% and 112% and 90.4% | 88.4% and 107% and 83.7% | 94% and 105% and 84% | 81.1% and 89.5% and 102% | 100% and 110% and 98.6% | 88.8% and 101% and 63.2% | > 10000 nM |  |  |  |  |  | 
5 | COc1ccc([C@@H](O)c2cc(-c3ncnc4cc(N5CCOCC5)ccc34)c(F)cc2Cl)nn1 | 79.4% and 93.7% and 78.8% | 94.5% and 91% and 91.4% | 65.4% and 72.2% and 74.5% | 41% and 43.4% and 43.2% | 30.4% and 40.3% and 25.8% | 19.4% and 22.7% and 12.3% | 684 nM and 894 nM and 830 nM |  |  |  |  |  | 
6 | COc1cccc(OCCCN)c1-c1cc(Nc2cnc(C#N)cn2)n[nH]1 | 6.55% and 5.13% and 5.86% | 4.87% and 4.67% and 4.64% | 4.09% and 5.43% and 4.13% | 3.68% (2×) and 3.24% |  |  | < 3.16 nM and 6.13 nM and 5.89 nM |  | 33.5% and 96.3% and 91.2% | 8.6% and 15.6% and 14.9% |  |  | 
7 | COc1cccc2c1C(=O)c1c(O)c3c(c(O)c1C2=O)CC(O)(C(=O)CO)CC3OC1CC(N)C(O)C(C)O1 (stereo not drawn) | 16.9% and 19.5% and 19.8% | 16.4% and 18.4% and 91.1% | 5.17% and 6.51% and 6.09% | 1.01% and 0.37% and 0.7% | 0.33% and 0.32% and 0.25% | 0.58% and 0.63% and 0.52% | < 31.6 nM and 114 nM |  |  |  |  |  | 
8 | Cc1cccc(N(C)C(=O)C2C(O)CCN2c2nc(C)cc(C(F)(F)F)c2C#N)c1 (stereo not drawn) |  |  |  |  |  | 99.5% [middle of 13 runs] |  | > 10000 |  |  | > 10000 |  | 
9 | Cn1ncnc1[C@H]1c2n[nH]c(=O)c3cc(F)cc(c23)N[C@@H]1c1ccc(F)cc1 | 38.1% and 61.4% and 34% | 29.1% and 35.4% and 36.5% |  |  |  |  | 11.8 nM and 37.5 nM and 14.7 nM |  | 54.7% and 74.7% and 71.7% | 62.7% and 56.4% and 57.5% |  | 80.8% and 91.3% and 74.5% | 64% and 85.5% and 71.1%
10 | Nc1ccc(C#CCN(C(=O)Cc2ncc(C(F)(F)F)cc2C(F)(F)F)c2ccc(F)cc2)nn1 |  |  |  |  | 97.9% [middle of 13 runs] | 99.7% [middle of 13 runs] |  |  |  |  | > 10000 |  | 
11 | Nc1ccn(C2OC(CO)C(O)C2(F)F)c(=O)n1 (stereo not drawn) | 5.66% and 4.03% and 5.85% | 5.98% and 3.62% and 5.26% | 6.49% and 4.28% and 5.54% | 5.15% and 3.77% and 4.65% | 4.26% and 2.95% and 4.25% | 3.15% and 2.31% and 3.29% | < 31.6 nM |  |  |  |  |  | 
12 | O=C(Nc1ccc(O)c(NS(=O)(=O)c2ccc(F)cc2)c1)c1ccc(-c2ccccc2)cc1 | 94% and 91.9% and 101% | 96.5% and 104% and 103% | 93.7% and 100% and 103% | 92.4% and 99.3% and 78.3% | 73.5% and 88.2% and 76.5% | 38.7% and 41.5% and 39.8% | 6880 nM and 8170 nM and 7070 nM |  |  |  |  |  | 
13 | O=C(c1cc(Cc2n[nH]c(=O)c3ccccc23)ccc1F)N1CCN(C(=O)C2CC2)CC1 |  |  |  |  |  | 22.3% and 7.71% and 32.7% |  |  |  |  |  |  | 
14 | O=c1[nH]cc(F)c(=O)[nH]1 | 104% and 91.8% and 101% | 104% and 98.7% and 75.8% | 93% and 94.3% and 74.7% | 69.7% and 67.1% and 72.8% | 50.6% and 38.9% and 57.3% | 44.5% and 29.5% and 45.3% | 3450 nM and 1970 nM and 7540 nM |  |  |  |  |  | 
